# Test results taken from patent publication US9309263B2, “Fused multi-cyclic sulfone compounds as inhibitors of beta-secretase and methods of use thereof” (AMGEN INC., priority 2013, dated 2016).
# pIC50: −log10 of the molar value. Where two headings read alike, the source gives them in different places.
# Legend:
# [1] = biological target: Beta Secretase enzyme (BACE) (Homo sapiens, UniProt P56817); experiment: In vitro enzymatic BACE FRET assay; assay type: biochemical; details: read-out: BACE1 FRET assay IC50
# In short: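 Enzyme (0.2 nM) pre-incubated 1 h with serially diluted inhibitors in 0.05 M acetate pH 4.2, 10% DMSO, 100 uM genapol. Reaction started with 50 nM fluorophore/quencher peptide FRET substrate, run 1 h, stopped with Tris to neutral pH. Fluorescence read at excitation 488 nm, […].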
# [2] = biological target: Cathepsin D (Cat D) (Homo sapiens, UniProt P07339); experiment: In vitro enzymatic Cathepsin D (Cat D) FRET assay; assay type: biochemical
# In short: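 Recombinant CHO-expressed enzyme (9 nM) pre-incubated 1 h with serially diluted inhibitor in 0.05 M citrate pH 3.5, 10% DMSO final, 5 mM CHAPS. Reaction started with 20 nM FRET peptide substrate, run 1 h, stopped with Tris to neutral pH; fluorescence read at ex 500/em 580 nm.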
# [3] = tested on: Aβ 40 in conditioned medium of cells stably expressing Amyloid Precursor Protein (APP); experiment: In vitro BACE cell-based assay (Aβ 40 sandwich ELISA); details: Homo sapiens, HEK293
# In short: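 APP-expressing cells, 24 h pre-culture in DMEM/10% FBS, treated 24 h with 10-point compound dilutions from 100 or 10 μM top, 0.1% DMSO final. Secreted Aβ40 quantified by sandwich ELISA (pAb40 capture, biotinylated 6E10 detection, europium TRF); IC50 from percent inhibition versus concentration.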
# [4] = text summary referring to data in Table 2
# [5] = average IC50, in vitro enzymatic BACE FRET assay
# [6] = Cathepsin D FRET assay, read-out: CatD IC50
# [7] = average IC50, HEK cell assay, Aβ 40 readout
# Sequence of Beta Secretase enzyme (BACE) (P56817 46-501): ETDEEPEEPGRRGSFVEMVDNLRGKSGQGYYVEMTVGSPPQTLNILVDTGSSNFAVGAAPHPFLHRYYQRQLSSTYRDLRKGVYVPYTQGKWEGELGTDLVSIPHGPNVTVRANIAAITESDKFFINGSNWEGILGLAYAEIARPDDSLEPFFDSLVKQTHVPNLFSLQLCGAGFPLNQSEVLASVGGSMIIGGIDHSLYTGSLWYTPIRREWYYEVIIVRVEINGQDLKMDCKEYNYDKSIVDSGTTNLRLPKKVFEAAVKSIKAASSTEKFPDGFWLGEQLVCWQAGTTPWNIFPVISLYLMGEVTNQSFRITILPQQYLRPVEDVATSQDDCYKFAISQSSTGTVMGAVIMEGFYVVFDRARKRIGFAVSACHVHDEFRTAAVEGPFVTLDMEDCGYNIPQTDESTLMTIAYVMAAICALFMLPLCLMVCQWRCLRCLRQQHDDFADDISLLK
# Sequence of Cathepsin D (Cat D) (P07339 65-412, species assumed): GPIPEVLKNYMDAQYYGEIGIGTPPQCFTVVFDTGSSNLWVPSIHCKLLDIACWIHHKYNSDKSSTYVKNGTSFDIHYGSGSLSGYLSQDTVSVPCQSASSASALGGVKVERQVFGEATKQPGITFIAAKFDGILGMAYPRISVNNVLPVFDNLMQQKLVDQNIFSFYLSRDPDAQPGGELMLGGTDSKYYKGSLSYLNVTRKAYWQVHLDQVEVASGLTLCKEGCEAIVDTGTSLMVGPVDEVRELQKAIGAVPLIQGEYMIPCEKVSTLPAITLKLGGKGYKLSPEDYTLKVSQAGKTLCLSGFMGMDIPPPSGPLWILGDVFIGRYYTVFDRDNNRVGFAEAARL
Structure (SMILES),pIC50 ([1]; average IC50),pIC50 ([2]; read-out: CatD IC50),"pIC50 [2, 4]","pIC50 ([3]; HEK cell, average IC50)","pIC50 [1, 5]","pIC50 [2, 6]","pIC50 [3, 7]","pIC50 ([3]; HEK cells, average IC50)"
"CC1(C)C(N)=N[C@]2(C)c3cc(NC(=O)c4ncc(C(F)(F)F)cc4Cl)ccc3OCC[C@H]2S1(=O)=O [Example 25, N-((4aR,11bR)-2-amino-3,3,11b-trimethyl-4,4-dioxido-4a,5,6,11b-tetrahydro-3H-[1]benzoxepino[4,5-b][1,4]thiazin-10-yl)-3-chloro-5-(trifluoromethyl)-2-pyridinecarboxamide]",8.15,2.45,< 2.92,8.70,,,,
"CC#C[C@H](C)Oc1ccc(C(=O)Nc2ccc3c(c2)[C@@]2(C)N=C(N)C(C)(C)S(=O)(=O)[C@@H]2CCO3)nc1 (single isomer, unassigned) [Example 69]",7.09,3.09,,6.00,,,,
"CC#C[C@H](C)Oc1cnc2c(Nc3ccc4c(c3)[C@@]3(C)N=C(N)C(C)(C)S(=O)(=O)[C@@H]3CCO4)ncc(F)c2c1 (single isomer, unassigned) [Example 70]",8.52,3.63,,7.59,,,,
"Cc1cc(Cl)cnc1C(=O)Nc1ccc2c(c1)[C@@]1(CF)N=C(N)C(C)(C)S(=O)(=O)[C@@H]1CCO2 [Example 149, N-((4aR,11bS)-2-amino-11b-(fluoromethyl)-3,3-dimethyl-4,4-dioxido-4a,5,6,11b-tetrahydro-3H-[1]benzoxepino[4,5-b][1,4]thiazin-10-yl)-5-chloro-3-methyl-2-pyridinecarboxamide]",,,,,8.05,< 3.40,7.36,
"COc1cccnc1Nc1ccc2c(c1)[C@@]1(C)N=C(N)C(C)(C)S(=O)(=O)[C@@H]1CCO2 [Example 13, (4aR,11bR)-N^~10^~-(3-methoxy-2-pyridinyl)-3,3,11b-trimethyl-4a,5,6,11b-tetrahydro-3H-[1]benzoxepino[4,5-b][1,4]thiazine-2,10-diamine 4,4-dioxide]",7.03,3.43,,7.14,,,,
"COc1cnc2c(Nc3ccc4c(c3)[C@@]3(CF)N=C(N)C(C)(C)S(=O)(=O)[C@@H]3CCO4)nccc2n1 [Example 151, (4aR,11bS)-11b-(fluoromethyl)-N^~10^~-(2-methoxypyrido[3,4-b]pyrazin-5-yl)-3,3-dimethyl-4a,5,6,11b-tetrahydro-3H-[1]benzoxepino[4,5-b][1,4]thiazine-2,10-diamine 4,4-dioxide]",,,,,7.43,< 3.40,7.17,
"Cc1cc(C(F)(F)F)cnc1C(=O)Nc1ccc2c(c1)[C@@]1(C)N=C(N)C(C)(C)S(=O)(=O)[C@@H]1CCS2 [Example 132, N-((4aR,11bR)-2-amino-3,3,11b-trimethyl-4,4-dioxido-4a,5,6,11b-tetrahydro-3H-[1]benzothiepino[4,5-b][1,4]thiazin-10-yl)-3-methyl-5-(trifluoromethyl)-2-pyridinecarboxamide]",,,,,8.70,3.45,9.10,
"Cc1cc(C(F)(F)F)cnc1C(=O)Nc1ccc2c(c1)[C@@]1(CF)N=C(N)C(C)(C)S(=O)(=O)[C@H]1C[C@H](C)O2 [Example 105, N-((4aS,6S,11bS)-2-amino-11b-(fluoromethyl)-3,3,6-trimethyl-4,4-dioxido-4a,5,6,11b-tetrahydro-3H-[1]benzoxepino[4,5-b][1,4]thiazin-10-yl)-3-methyl-5-(trifluoromethyl)-2-pyridinecarboxamide]",,,,,8.40,2.83,7.89,
"C[C@H]1C[C@@H]2[C@](C)(N=C(N)C(C)(C)S2(=O)=O)c2cc(NC(=O)c3cnc(OCc4ccn(C)n4)cn3)ccc2O1 [Example 82, N-((4aR,6S,11bR)-2-amino-3,3,6,11b-tetramethyl-4,4-dioxido-4a,5,6,11b-tetrahydro-3H-[1]benzoxepino[4,5-b][1,4]thiazin-10-yl)-5-((1-methyl-1H-pyrazol-3-yl)methoxy)-2-pyrazinecarboxamide]",,,,,8.30,3.23,8.05,
"CC1(C)C(N)=N[C@]2(C)c3cc(NC(=O)c4ncc(Cl)cc4Cl)ccc3OCC[C@H]2S1(=O)=O [Example 24, N-((4aR,11bR)-2-amino-3,3,11b-trimethyl-4,4-dioxido-4a,5,6,11b-tetrahydro-3H-[1]benzoxepino[4,5-b][1,4]thiazin-10-yl)-3,5-dichloro-2-pyridinecarboxamide]",8.52,3.01,< 3.10,9.00,,,,
"CC1(C)C(N)=N[C@]2(C)c3cc(NC(=O)c4ncc(C(F)F)cc4Cl)ccc3OCC[C@H]2S1(=O)=O [Example 172, N-((4aR,11bR)-2-amino-3,3,11b-trimethyl-4,4-dioxido-4a,5,6,11b-tetrahydro-3H-[1]benzoxepino[4,5-b][1,4]thiazin-10-yl)-3-chloro-5-(difluoromethyl)-2-pyridinecarboxamide]",7.92,< 3.40,,,,,,8.40
"CC1(C)C(N)=N[C@]2(C)c3cc(Nc4nccc5cc(Cl)cnc45)ccc3CCC[C@@H]2S1(=O)=O [Example 34, (4aS,11bR)-N^~10^~-(3-chloro-1,7-naphthyridin-8-yl)-3,3,11b-trimethyl-3,4a,5,6,7,11b-hexahydrobenzo[3,4]cyclohepta[1,2-b][1,4]thiazine-2,10-diamine 4,4-dioxide]",7.15,3.39,,6.33,,,,
"C[C@H]1C[C@@H]2[C@](C)(N=C(N)C(C)(C)S2(=O)=O)c2cc(Nc3nccc4cc(C(F)(F)F)cnc34)ccc2O1 [Example 131, (4aR,6S,11bR)-2-amino-3,3,6,11b-tetramethyl-10-((3-(trifluoromethyl)-1,7-naphthyridin-8-yl)amino)-4a,5,6,11b-tetrahydro-3H-benzo[6,7]oxepino[4,5-b][1,4]thiazine 4,4-dioxide]",,,,,8.30,3.35,8.30,
"Cc1cc(Cl)cnc1C(=O)Nc1ccc2c(c1)[C@@]1(C)N=C(N)C(C)(C)S(=O)(=O)[C@@H]1CCO2 [Example 6a, N-((4aR,11bR)-2-amino-3,3,11b-trimethyl-4,4-dioxido-4a,5,6,11b-tetrahydro-3H-benzo[6,7]oxepino[4,5-b][1,4]thiazin-10-yl)-5-chloro-3-methylpicolinamide]",8.70,< 4.00,,8.22,,,,
"C[C@H]1C[C@@H]2[C@](C)(N=C(N)C(C)(C)S2(=O)=O)c2cc(NC(=O)c3ncc(Cl)cc3CO)ccc2O1 [Example 130, N-((4aR,6S,11bR)-2-amino-3,3,6,11b-tetramethyl-4,4-dioxido-4a,5,6,11b-tetrahydro-3H-benzo[6,7]oxepino[4,5-b][1,4]thiazin-10-yl)-5-chloro-3-(hydroxymethyl)picolinamide]",,,,,8.52,4.35,9.10,
"Cc1cc(OC(F)F)cnc1C(=O)Nc1ccc2c(c1)[C@@]1(C)N=C(N)C(C)(C)S(=O)(=O)[C@H]1CCO2 [Example 160, N-((4aS,11bR)-2-amino-3,3,11b-trimethyl-4,4-dioxido-4a,5,6,11b-tetrahydro-3H-[1]benzoxepino[4,5-b][1,4]thiazin-10-yl)-5-(difluoromethoxy)-3-methyl-2-pyridinecarboxamide]",8.00,2.93,,,,,,8.52
"Cc1cc(Cl)cnc1C(=O)Nc1ccc2c(c1)[C@@]1(C)N=C(N)C(C)(C)S(=O)(=O)[C@@]1(C)CCO2 [Example 26, N-((4aS,11bR)-2-amino-3,3,4a,11b-tetramethyl-4,4-dioxido-4a,5,6,11b-tetrahydro-3H-[1]benzoxepino[4,5-b][1,4]thiazin-10-yl)-5-chloro-3-methyl-2-pyridinecarboxamide]",8.52,3.00,< 3.10,9.00,,,,
"COc1cnc(C(=O)Nc2ccc3c(c2)[C@@]2(C)N=C(N)C(C)(C)S(=O)(=O)[C@@H]2CC(C)(C)O3)c(C)n1 [Example 101, N-((4aR,11bR)-2-amino-3,3,6,6,11b-pentamethyl-4,4-dioxido-4a,5,6,11b-tetrahydro-3H-[1]benzoxepino[4,5-b][1,4]thiazin-10-yl)-5-methoxy-3-methyl-2-pyrazinecarboxamide]",,,,,7.54,3.08,7.72,
"COc1cnc(C(=O)Nc2ccc3c(c2)[C@@]2(CF)N=C(N)C(C)(C)S(=O)(=O)[C@@H]2C[C@H](C)O3)cn1 [Example 107, N-((4aR,6S,11bS)-2-amino-11b-(fluoromethyl)-3,3,6-trimethyl-4,4-dioxido-4a,5,6,11b-tetrahydro-3H-[1]benzoxepino[4,5-b][1,4]thiazin-10-yl)-5-methoxy-2-pyrazinecarboxamide]",,,,,7.02,< 3.40,6.96,
"C[C@]12N=C(N)C3(CCC3)S(=O)(=O)[C@@H]1CCOc1ncc(NC(=O)c3ccc(C#N)cn3)cc12 [Example 63, N-((4a′R,11b′R)-2′-amino-1113′-methyl-4′,4′-dioxido-4a′,5′,6′,11b′-tetrahydrospiro[cyclobutane-1,3′-pyrido[3′,2′:6,7]oxepino[4,5-b][1,4]thiazin]-10′-yl)-5-cyano-2-pyridinecarboxamide]",7.44,3.06,< 3.10,6.79,,,,
